Reference: US5317022A, “Pharmaceutical composition and use” (priority 1991, dated 1994)

What was measured:
[1] = system: rat; assay: analgetic effect, tail flick (rat); assay type: in vivo
[2] = system: rabbits; assay: effect on respiration on conscious rabbits (III.6, type A/B/C tests); assay type: in vivo; set-up: resp. change ampl.: unit not given here
Protocol: The method as described above in Example III.5 was used on conscious rabbits of 2,5-3 kg weight. Registration was continued for 3-4 hours. The samples were injected under the skin of the neck and the respiration parameters were registered at intervals of 10 minutes.

[3] = system: rats; assay: sedative (narcosis potentiating) effect, Inactine base narcotic, rats; assay type: in vivo
Protocol: Inactine (35 mg/kg) was used as a base narcotic.
*ED500 % = dose increasing narcosis to five times the control.

[4] = system: rat; assay: analgetic effect, hot plate (rat); assay type: in vivo
[5] = system: mice; assay: analgetic effect, writhing test (mice); assay type: in vivo
[6] = target: (^3 H)naloxone binding sites; assay: competition binding assay with (3H)naloxone on rat brain membranes; conditions: membranes incubated with (3H)naloxone 1 nM and increasing ligand concentrations; read-out: Affinity constants (Ki nM) in competition assays
Protocol: Membrane preparation: A crude membrane fraction from rat brain (PVG/C strain) was prepared [Mol. Pharm.11 (1975) 340-351 and the protein content was defined [Anal. Biochem. 72(1976) 248-254).
The membrane suspension (200-400 μg protein) was incubated with the specific radioligand for 1 hour on ice. Incubations were terminated by rapid filtration under vacuo followed by washing with ice cold tris HCl buffer (50 mM, pH 7,4). Radioactivity was measured in a toluene based scintillation mixture on a LKB Minibeta Liquid Scintillation Spectrophotometer. Nonspecific binding was defined in the presence of 10 μM unlabeled naloxone. All assays were performed in triplicate and repeated several times. Ki values were determined from equilibrium experiments and calculated with the Tshang-Prusov equation. The data were evaluated using the Ligand program [Anal. Biol. Chem. 107 (1980) 220-239](Data shown on Table III/1).

[7] = system: rabbits; assay: effects on respiration on conscious rabbits (III.5, Marey-drum)
Protocol: Investigation was carried out on conscious rabbits of both sexes and of 3-4 kg weight by way of a Marey-drum. Frequency and amplitude of respiration were quantitatively evaluated.

[8] = system: rat; assay: animal or person; conditions: read-out: algolyt. test (rat) 100% activity
[9] = system: mice; conditions: in vivo
[10] = system: rat; conditions: dose giving 100% activity
[11] = system: rats
[12] = type A: OH 0.25 mg/kg s.c., 20 min
[13] = type A: OH 0.25 mg/kg s.c., 30 min
[14] = type A: OH 0.25 mg/kg s.c., then morphine 5 mg/kg s.c., 10 min
[15] = type C: OH 0.25 mg/kg with morphine 5 mg/kg s.c., 20 min

**Q.** With `COc1ccc2c3c1O[C@H]1C(=NN)CC[C@@]4(O)[C@@H](C2)N(C)CC[C@]314` [Oxycodone hydrazone, 14-OH-DIHYDROCODEINONE-HYDRAZONE (TRANS)] as the compound, how does the ED50 ([1]; Rattus norvegicus, read-out: tail flick (rat) ED50) read?
**A.** 0.65 mg/kg

**Q.** And the resp. change ampl. [2, 12]?
**A.** +20

**Q.** And the resp. change fr/min [2, 12]?
**A.** +150

**Q.** And the resp. change ampl. [2, 13]?
**A.** +20

**Q.** What about the resp. change fr/min [2, 13] of the same compound?
**A.** +127

**Q.** What about the resp. change ampl. [2, 14] of the same compound?
**A.** -30

**Q.** And the resp. change fr/min [2, 14]?
**A.** -36

**Q.** What about the resp. change ampl. [2, 15] of the same compound?
**A.** +10

**Q.** What about the resp. change fr/min [2, 15] of the same compound?
**A.** +30

**Q.** What about the “ED500 % (dose increasing narcosis to five times the control)” value ([3]; rat, in vivo) of the same compound?
**A.** 0,45 mg/kg

**Q.** And the “potentiation of Inactine narcosis (in words)” value ([3]; rat, in vivo)?
**A.** most effectively prolongated

**Q.** And the ED50 ([4]; Rattus norvegicus, read-out: hot plate (rat) ED50)?
**A.** 0.46 mg/kg

**Q.** And the ED50 ([5]; Mus musculus, read-out: writhing test (mice) ED50)?
**A.** 0.35 mg/kg

**Q.** And the Ki [6]?
**A.** 800 nM

**Q.** What about the “volume and frequency of respiration (in words)” value ([7]; 50 μg/kg dose) of the same compound?
**A.** increases both the volume and the frequency of respiration

**Q.** What about the “respiration effect (printed over two lines: slight reversion)” value ([7]; rabbit, in vivo) of the same compound?
**A.** reversion

**Q.** What about the “reversal of morphine respiratory depression (in words)” value ([7]; rabbit, in vivo) of the same compound?
**A.** a partial reversal takes place

**Q.** And the respiration frequency/min. ([7]; rabbit, in vivo, sc)?
**A.** .uparw.

**Q.** And the respiration volume ([7]; rabbit, in vivo, sc)?
**A.** .uparw.

**Q.** And the ED100 [8]?
**A.** 10 mg/kg

**Q.** What about the “number of jumps/mouse (average)” value [9] of the same compound?
**A.** 1,5

**Q.** And the “% relation of jumping animals” value ([9]; mouse)?
**A.** 50%

**Q.** Which results are given for `COc1ccc2c3c1O[C@H]1C(=O)CC[C@@]4(O)[C@@H](C2)N(C)CC[C@]314` [Oxycodone, reference compound]?
**A.** tail flick (rat) ED50 ([1]; rat): 0,68 mg/kg; algolyt. test (rat) 100% activity [10]: 2,2 mg/kg; ED500 % (dose increasing narcosis to five times the control) ([3]; s.c. on rats, Inactine 35 mg/kg, dose as base): 1,2 mg/kg; hot plate (rat) ED50 ([4]; rat): 0.92 mg/kg; writhing test (mice) ED50 ([5]; mice): 0,45 mg/kg; change of morphine toxicity (in words) ([11]; administered together with morphine, s.c.): potentiate toxicity of morphine; Combination LD50 / morphine LD50 ([11]; test substance 10 mg/kg s.c.): 0,57; respiration effect ([7]; 10-2500 μg/kg i.v., s.c.): depression; respiration frequency/min. ([7]; 10-2500 μg/kg i.v., s.c.): .dwnarw.; respiration volume ([7]; 10-2500 μg/kg i.v., s.c.): .dwnarw.; influence on the respiratory depression effect of morphine (in words) ([7]; rabbit, in vivo): unambiguously potentiate the respiratory depression effect of morphine; respiratory depression by the compound alone (in words) ([7]; s.c., dihydrocodeinone 50-2500 μg/kg, oxycodone 10-2500 μ/kg): cause respiratory depression
